# Assay results published in patent publication US20110098332A1, “Insecticides for Increasing the Crop Yield” (BASF SE, priority 2007, published 2011).
# Experiments:
# [1] = system: Spring wheat (cultivar Triso); assay: Crop yield increase in spring wheat after seed treatment (field trial); assay type: in vivo; details: seed treatment 100 ml/100 kg seeds (Regent FS 500, 50 g per 100 kg seeds), harvest 130 days after planting
# From the text: (§1) The N-min analysis method used in the examples determines the content of mineral nitrogen compounds in the soil (0-90 cm depth) at the beginning of the vegetative period. For this purpose, samples are taken in a depth of 0 to 90 cm and mineral nitrogen compounds (ammonium compounds and nitrates) are extracted and analyzed. The method is described in R. Thun et al., “Die Untersuchung von Böden, Methodenbuch Bd. 1, 4th edition 1991, edition VDLUFA (Verband Deutscher Landwirtschaftlicher Untersuchungs- and Forschungsanstalten), Darmstadt, Germany.
# Spring wheat seeds (cultivar Triso) were treated with fipronil (used as commercially available product Regent FS 500; an FS formulation containing 500 g/l of active compound; 50 g per 100 kg seeds) in a HEGE 11 seed treatment apparatus. A part of the seeds remained untreated (control). Five days after the treatment, the seeds were planted near Gommersheim, Palatine, Germany, in a loamy sand with a pH of 6.7, and a tilling depth of 30 cm. Nitrogen content following N-min analysis was 52 kg N per ha in 0 to 90 cm depth. 400 seeds per m^2 were sown in 1.86 m by 5.5 m plots. Row spacing was 13 cm and seeding depth 3 cm. The treatments were supplied with either standard amount of nitrogen (140 kg N/ha) or reduced amount of nitrogen (30 kg N/ha). 130 days after planting, the wheat grains were harvested and weighed.
# [2] = system: Winter wheat (cultivar Türkis); assay: Crop yield in winter wheat after seed treatment (field trial); assay type: in vivo; details: seed treatment 50 ml/100 kg seeds (Regent FS 500, 25 g per 100 kg seeds), harvest 269 days after planting
# From the text: as §1
# Winter wheat seeds (cultivar Türkis) were treated with fipronil (used as commercially available product Regent FS 500; an FS formulation containing 500 g/l of active ccompound; 25 g per 100 kg seeds) in a HEGE 11 seed treatment apparatus. A part of the seeds remained untreated (control). Two days after the treatment, the seeds were planted in Böhl, Palatine, Germany, in a loamy sand with a pH of 6.7, and a tilling depth of 30 cm. Nitrogen content following N-min analysis was 26 kg N per ha in 0 to 90 cm depth. 400 seeds per m^2 were sown in 1.86 m by 5.5 m plots. Row spacing was 13 cm and seeding depth 3 cm. The treatments were supplied with either standard amount of nitrogen (180 kg N/ha) or reduced amount of nitrogen (50 kg N/ha). 269 days after planting, the wheat grains were harvested and weighed.
smiles,measurement,setting,value
N#Cc1nn(-c2c(Cl)cc(C(F)(F)F)cc2Cl)c(N)c1[S+]([O-])C(F)(F)F (stereo not shown) [fipronil],Crop yield,"[1]; reduced nitrogen (30 kg N/ha), control 47.0",51.4 dt/ha
same,Crop yield,"[1]; standard nitrogen (140 kg N/ha), control 62.8",63.2 dt/ha
same,Crop yield,"[2]; reduced nitrogen (50 kg N/ha), control 82.6",86.1 dt/ha
same,Crop yield,"[2]; standard nitrogen (180 kg N/ha), control 87.4",87.4 dt/ha
